Measured values from ChEMBL document CHEMBL1201862, “PubChem BioAssay data set” (2004).
Activity calls are given as the source filed them.

Experiments:
[1] = inhibitors of Vif binding to APOBEC3G peptide, primary screen, biochemical, TR-FRET, GST-Vif 1-94, biotin-A3G peptide, dose response retest (AID 1117319); type: functional;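 note: TR-FRET signal of purified GST-Vif binding a biotinylated A3G peptide; inhibitors lower the FRET signal by blocking Vif and A3G binding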
Protein Tat = target: T1, Protein Tat (Human immunodeficiency virus type 1 group M subtype B (isolate HXB2)(HIV-1), UniProt P04608); type: functional;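 note: tat binding to TAR RNA read out by fluorescence polarization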
T1 sequence (P04608 whole entry): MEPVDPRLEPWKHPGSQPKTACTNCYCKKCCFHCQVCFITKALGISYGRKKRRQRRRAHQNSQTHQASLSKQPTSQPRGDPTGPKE

[2] = target: FAD-linked sulfhydryl oxidase ALR (Homo sapiens, UniProt P55789); experiment: inhibitors of human ALR sulfhydryl oxidase, dose response, biochemical, H2O2 detection, luminescence, cherry-pick (AID 493248)
Chain of FAD-linked sulfhydryl oxidase ALR (P55789 whole entry): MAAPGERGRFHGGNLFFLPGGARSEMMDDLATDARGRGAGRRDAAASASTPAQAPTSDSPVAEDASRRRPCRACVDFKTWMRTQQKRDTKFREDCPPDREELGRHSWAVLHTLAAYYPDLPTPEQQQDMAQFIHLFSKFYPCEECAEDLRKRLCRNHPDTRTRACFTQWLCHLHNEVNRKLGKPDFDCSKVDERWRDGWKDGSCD

[3] = target: T2, Polyadenylate-binding protein 1 (Homo sapiens, UniProt P11940); experiment: PABP1 MLLE–PAM2 binding inhibitor potency, dose response, biochemical, fluorescence polarization, FITC-PAM2 peptide (AID 602259); type: functional; settings: read-out: IC50_Mean
T2 sequence (P11940 whole entry): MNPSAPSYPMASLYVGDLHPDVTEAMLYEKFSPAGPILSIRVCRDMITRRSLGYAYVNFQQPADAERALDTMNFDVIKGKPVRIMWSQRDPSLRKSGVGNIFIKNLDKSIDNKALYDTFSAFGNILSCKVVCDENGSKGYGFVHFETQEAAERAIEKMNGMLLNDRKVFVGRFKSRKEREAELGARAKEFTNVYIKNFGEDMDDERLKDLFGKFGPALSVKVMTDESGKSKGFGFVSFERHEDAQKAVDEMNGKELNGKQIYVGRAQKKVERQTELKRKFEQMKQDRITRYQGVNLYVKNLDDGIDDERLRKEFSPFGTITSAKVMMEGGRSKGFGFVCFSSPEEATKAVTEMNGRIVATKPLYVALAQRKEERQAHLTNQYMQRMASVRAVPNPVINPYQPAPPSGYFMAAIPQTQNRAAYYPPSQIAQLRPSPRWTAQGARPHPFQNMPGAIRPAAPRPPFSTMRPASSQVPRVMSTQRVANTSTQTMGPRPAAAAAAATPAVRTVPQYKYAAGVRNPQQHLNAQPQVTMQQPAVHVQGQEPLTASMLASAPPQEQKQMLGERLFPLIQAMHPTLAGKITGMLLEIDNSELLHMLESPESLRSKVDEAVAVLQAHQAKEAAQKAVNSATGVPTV

Protein RecA = target: T3, Protein RecA (Mycobacterium tuberculosis, UniProt P9WHJ3); experiment: Fluorescence Cell-Free Homogeneous Dose Retest to Identify Inhibitors of RecA-Intein Splicing Activity. [Related pubchem assays (depositor defined):AID2097, AID2223, AID489010, AID492950]; type: functional
T3 sequence (P9WHJ3 whole entry): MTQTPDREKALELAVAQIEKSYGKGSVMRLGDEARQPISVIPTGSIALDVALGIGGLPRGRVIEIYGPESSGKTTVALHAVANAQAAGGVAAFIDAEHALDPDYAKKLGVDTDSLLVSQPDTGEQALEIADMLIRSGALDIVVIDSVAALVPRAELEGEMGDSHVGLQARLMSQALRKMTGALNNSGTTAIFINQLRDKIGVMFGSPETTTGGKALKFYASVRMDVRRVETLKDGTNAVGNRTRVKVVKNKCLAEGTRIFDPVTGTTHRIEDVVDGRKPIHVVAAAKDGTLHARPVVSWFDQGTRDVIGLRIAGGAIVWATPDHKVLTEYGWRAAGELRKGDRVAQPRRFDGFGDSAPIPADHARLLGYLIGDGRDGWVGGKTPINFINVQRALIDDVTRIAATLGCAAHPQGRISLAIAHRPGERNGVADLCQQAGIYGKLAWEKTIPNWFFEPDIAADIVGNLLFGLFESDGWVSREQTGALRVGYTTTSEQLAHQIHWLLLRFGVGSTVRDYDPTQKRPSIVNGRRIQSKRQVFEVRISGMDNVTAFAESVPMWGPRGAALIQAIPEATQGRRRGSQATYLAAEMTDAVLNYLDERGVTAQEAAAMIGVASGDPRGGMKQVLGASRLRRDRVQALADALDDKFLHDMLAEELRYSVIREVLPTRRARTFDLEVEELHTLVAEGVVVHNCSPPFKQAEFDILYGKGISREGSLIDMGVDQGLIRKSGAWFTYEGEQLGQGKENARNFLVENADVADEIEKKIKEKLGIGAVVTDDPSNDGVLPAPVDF

[4] = growth suppression of beta-catenin-knockout colon cells, dose response, cell-based, HCT116, human colon tumor (AID 1045); type: functional;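 note: HCT116 colon tumor cells with beta catenin knocked out; cells exposed to compound for 60 hours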
[5] = growth suppression of PTEN-null colon cells, dose response, cell-based, HCT116 PTEN knockout (AID 1047); type: functional;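 note: HCT116 colon tumor cells with PTEN knocked out; cells exposed to compound for 60 hours before readout; potency for loss of cell viability measured by luminescence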
[6] = target: T2, Polyadenylate-binding protein 1; experiment: PABP1 MLLE–PAM2 interaction inhibitors, dose response, miRNA deadenylation inhibitor project, biochemical, fluorescence polarization, Cy5-PAM2 peptide, secondary (AID 602260); type: functional; settings: read-out: IC50_Mean
[7] = target: T4, Replicative DNA helicase DnaB (Mycobacterium tuberculosis, UniProt P9WMR3); experiment: DnaB intein splicing inhibitors, dose response, biochemical, cell-free fluorescence (AID 449749); type: functional
T4 sequence (P9WMR3 whole entry): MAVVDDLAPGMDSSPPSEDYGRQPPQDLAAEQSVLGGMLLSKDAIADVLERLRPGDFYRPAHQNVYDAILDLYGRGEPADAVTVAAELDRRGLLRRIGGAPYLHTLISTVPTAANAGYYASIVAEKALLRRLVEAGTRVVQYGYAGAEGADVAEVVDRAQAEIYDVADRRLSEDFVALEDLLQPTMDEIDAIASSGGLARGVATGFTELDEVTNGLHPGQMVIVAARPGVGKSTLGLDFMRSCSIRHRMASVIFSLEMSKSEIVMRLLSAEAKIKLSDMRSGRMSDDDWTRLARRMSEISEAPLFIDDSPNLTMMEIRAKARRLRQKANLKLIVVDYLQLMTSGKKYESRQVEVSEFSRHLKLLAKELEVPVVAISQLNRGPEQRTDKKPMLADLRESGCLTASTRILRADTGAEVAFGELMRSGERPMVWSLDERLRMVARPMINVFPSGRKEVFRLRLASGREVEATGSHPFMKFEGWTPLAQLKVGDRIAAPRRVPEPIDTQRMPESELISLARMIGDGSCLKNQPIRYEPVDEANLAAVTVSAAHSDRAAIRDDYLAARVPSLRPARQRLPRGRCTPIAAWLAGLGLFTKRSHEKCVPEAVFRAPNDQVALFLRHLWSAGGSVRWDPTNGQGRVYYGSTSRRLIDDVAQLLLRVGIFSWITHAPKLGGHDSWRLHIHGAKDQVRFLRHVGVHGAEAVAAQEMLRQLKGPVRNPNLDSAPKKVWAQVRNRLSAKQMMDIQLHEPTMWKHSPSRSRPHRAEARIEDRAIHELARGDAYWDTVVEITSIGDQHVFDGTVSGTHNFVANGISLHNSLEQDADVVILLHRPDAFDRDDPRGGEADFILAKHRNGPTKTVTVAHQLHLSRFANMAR

[8] = THP-1 cell cytotoxicity, dose response, cytotoxicity control for Vif-APOBEC3G degradation inhibitor project, THP-1 cells (AID 1117359); type: functional; settings: Human immunodeficiency virus 1, THP-1
[9] = target: T5, Epstein-Barr nuclear antigen 1 (Epstein-Barr virus (strain B95-8) (HHV-4) (Human herpesvirus 4), UniProt P03211); experiment: EBNA-1 inhibitors, dose response, biochemical, fluorescence polarization, 1536-well (AID 2381); design: species or system human gammaherpesvirus 4;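 note: fluorescence polarization of a Cy5 DNA probe bound by EBNA-1 protein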
T5 sequence (P03211 whole entry): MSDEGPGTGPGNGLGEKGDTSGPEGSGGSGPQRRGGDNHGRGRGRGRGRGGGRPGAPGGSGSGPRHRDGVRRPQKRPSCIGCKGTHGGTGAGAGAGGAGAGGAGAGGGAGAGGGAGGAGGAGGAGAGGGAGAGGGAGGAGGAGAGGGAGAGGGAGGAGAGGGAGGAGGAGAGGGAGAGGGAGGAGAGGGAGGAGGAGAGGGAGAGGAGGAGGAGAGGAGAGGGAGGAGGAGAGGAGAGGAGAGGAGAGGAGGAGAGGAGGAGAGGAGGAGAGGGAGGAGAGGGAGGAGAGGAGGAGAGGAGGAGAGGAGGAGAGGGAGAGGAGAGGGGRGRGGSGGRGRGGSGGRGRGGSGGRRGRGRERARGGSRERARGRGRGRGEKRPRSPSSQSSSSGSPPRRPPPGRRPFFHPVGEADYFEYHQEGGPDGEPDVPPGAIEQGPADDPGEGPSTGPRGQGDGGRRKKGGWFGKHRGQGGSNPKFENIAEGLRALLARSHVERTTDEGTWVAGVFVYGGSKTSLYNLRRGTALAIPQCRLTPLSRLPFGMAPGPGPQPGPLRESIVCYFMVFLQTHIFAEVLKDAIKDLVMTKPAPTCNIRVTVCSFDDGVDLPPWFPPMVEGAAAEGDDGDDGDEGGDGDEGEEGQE

[10] = target: T6, Lytic switch protein BZLF1 (Epstein-Barr virus (strain B95-8) (HHV-4) (Human herpesvirus 4), UniProt P03206); experiment: EBV ZTA inhibitors, dose response, counter-screen for EBNA-1 inhibitor project, biochemical, fluorescence polarization, Epstein-Barr virus, 1536-well (AID 2377); design: species or system human gammaherpesvirus 4;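 note: fluorescence polarization of Cy5-labelled ZRE DNA probe bound by purified Zta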
T6 sequence (P03206 whole entry): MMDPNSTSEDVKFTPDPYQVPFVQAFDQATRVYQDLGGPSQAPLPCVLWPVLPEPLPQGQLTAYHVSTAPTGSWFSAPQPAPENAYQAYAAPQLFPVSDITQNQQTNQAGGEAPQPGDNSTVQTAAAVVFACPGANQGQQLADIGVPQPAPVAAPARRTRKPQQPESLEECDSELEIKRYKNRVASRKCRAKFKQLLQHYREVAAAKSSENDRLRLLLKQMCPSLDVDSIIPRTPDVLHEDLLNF

[11] = MC4R antagonists, dose response, counter-screen for LGR2 antagonist project, cell-based, plate reader, cherry pick (AID 743444); type: functional;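 note: transfected HEK 293 cells stimulated with alpha-MSH peptide; potency of inhibitors of the alpha-MSH evoked signal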
[12] = HEK293 cell cytotoxicity, dose response, cytotoxicity control, plate reader, cherry-picked samples (AID 743446); type: functional, cell-based
[13] = LGR2 antagonists, dose response, cell-based, HEK293, CRE-luciferase reporter, cherry pick, set 2 (AID 743343); type: functional;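 note: transfected cells were stimulated with diluted bursicon conditioned medium after compound addition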
Estrogen receptor beta [14] = target: T7, Estrogen receptor beta (Homo sapiens, UniProt Q92731); experiment: ERβ–SRC-3 coactivator interaction inhibitors, confirmation, orthogonal assay, biochemical, ELISA, streptavidin-HRP readout (AID 1060)
T7 sequence (Q92731 whole entry): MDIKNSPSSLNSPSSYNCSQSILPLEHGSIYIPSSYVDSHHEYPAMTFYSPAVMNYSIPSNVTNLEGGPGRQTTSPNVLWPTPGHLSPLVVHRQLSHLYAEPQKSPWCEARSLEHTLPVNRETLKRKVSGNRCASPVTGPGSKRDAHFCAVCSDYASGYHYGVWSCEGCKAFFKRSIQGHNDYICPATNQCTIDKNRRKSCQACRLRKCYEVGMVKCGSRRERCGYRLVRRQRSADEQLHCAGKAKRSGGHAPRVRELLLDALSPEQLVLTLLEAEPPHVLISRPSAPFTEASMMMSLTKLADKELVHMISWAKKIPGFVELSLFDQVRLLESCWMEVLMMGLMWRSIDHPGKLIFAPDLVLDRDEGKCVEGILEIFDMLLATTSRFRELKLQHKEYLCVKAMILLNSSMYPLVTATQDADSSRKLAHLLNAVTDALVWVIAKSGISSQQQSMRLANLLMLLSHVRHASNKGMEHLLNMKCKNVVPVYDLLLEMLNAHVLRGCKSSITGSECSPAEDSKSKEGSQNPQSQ

Estrogen receptor beta [15] = target: T7, Estrogen receptor beta
[16] = target: T8, Carboxy-terminal domain RNA polymerase II polypeptide A small phosphatase 1 (Homo sapiens, UniProt Q9GZU7); experiment: inhibitors of CTDSP1, concentration-response testing, biochemical assay, absorbance-based, actives from ultra-high-throughput screening (AID 540297); type: functional
T8 sequence (Q9GZU7 whole entry): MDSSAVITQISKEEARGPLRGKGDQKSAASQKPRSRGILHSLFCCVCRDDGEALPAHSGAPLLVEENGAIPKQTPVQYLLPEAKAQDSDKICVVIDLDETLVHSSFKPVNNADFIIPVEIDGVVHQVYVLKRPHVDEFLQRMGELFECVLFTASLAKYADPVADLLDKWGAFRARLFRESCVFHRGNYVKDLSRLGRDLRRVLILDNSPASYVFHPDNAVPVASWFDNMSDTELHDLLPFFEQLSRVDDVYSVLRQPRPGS

Kallikrein-7 = Kallikrein-7 (Homo sapiens, UniProt P49862); experiment: Fluorescence Intensity-based biochemical primary high throughput dose response assay to identify activators of kallikrein-7 (K7) zymogen.
Chain of Kallikrein-7 (P49862 whole entry): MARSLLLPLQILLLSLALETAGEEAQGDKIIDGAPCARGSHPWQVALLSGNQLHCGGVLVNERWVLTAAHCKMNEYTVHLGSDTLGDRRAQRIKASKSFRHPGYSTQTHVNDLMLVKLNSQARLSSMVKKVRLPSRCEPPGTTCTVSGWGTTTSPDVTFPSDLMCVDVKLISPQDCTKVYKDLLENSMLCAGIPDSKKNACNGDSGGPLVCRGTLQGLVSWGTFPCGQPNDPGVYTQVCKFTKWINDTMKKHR

**Q.** For `COc1ccc(C(=O)OCC(=O)c2c(N)n(C)c(=O)n(C)c2=O)cc1OC`, which IC50 [1] is on record?
**A.** Its IC50 is > 100 µM (active).

**Q.** With `Cc1ccc(-n2c(C)cc(C(=O)OCC(=O)N(CC(C)C)C3CCS(=O)(=O)C3)c2C)cc1` (configuration not stated) as the compound, how does the IC50 [1] read?
**A.** The IC50 was > 100 µM (active).

**Q.** What about the IC50 (Protein Tat) of the same compound?
**A.** Its IC50 is > 100 µM (active).

**Q.** Which IC50 [1] does the source give for `COc1ccc(S(=O)(=O)Cc2ccc(C(=O)N3CCN(c4ccccc4)CC3)o2)cc1` here?
**A.** The IC50 was > 100 µM (active).

**Q.** What about the AC50 [2] of the same compound?
**A.** The AC50 was 19.1 µM (active).

**Q.** What about the IC50 (Protein Tat) of the same compound?
**A.** Its IC50 is > 100 µM (active).

**Q.** With `O=[N+]([O-])c1c(NCCCO)cc(SCc2ccco2)c2nonc12` as the compound, how does the IC50 [3] read?
**A.** The IC50 was > 66 µM (inactive).

**Q.** And the EC50 (Protein RecA)?
**A.** The EC50 was 5.64 µM (active).

**Q.** What about the EC50 [4] of the same compound?
**A.** Its EC50 is 18 µM (active).

**Q.** And the EC50 [5]?
**A.** Its EC50 is 27.1 µM (active).

**Q.** What about the IC50 [6] of the same compound?
**A.** Its IC50 is > 66 µM (inactive).

**Q.** What about the AC50 [7] of the same compound?
**A.** The AC50 was 57.7 µM (active).

**Q.** And the CC50 [8]?
**A.** Its CC50 is > 40 µM (active).

**Q.** With `CCc1nnc(NC(=O)CSc2ccc(-c3nc4ccccc4[nH]3)cn2)s1` as the compound, how does the IC50 [9] read?
**A.** Its IC50 is 17.1 µM (not active).

**Q.** And the IC50 [10]?
**A.** Its IC50 is > 111 µM (not active).

**Q.** Which results are given for `Cc1ccc(-c2nc(-c3ccccn3)no2)cc1[N+](=O)[O-]`?
**A.** AC50 [11]: 14.9 µM (active); AC50 [12]: > 52 µM (inactive); AC50 [13]: 4.31 µM (active)

**Q.** What does the source list for `Sc1nnc(-c2cc(-c3ccco3)[nH]n2)n1-c1ccccc1Cl`?
**A.** IC50 (Estrogen receptor beta [14]): > 109 µM (not active); IC50 (Estrogen receptor beta [15]): > 50 µM (not active); IC50 [16]: 5.55 µM (active)

**Q.** With `CCOC(=O)N1CCN(C(=O)c2ccc3nc4ccsc4c(=O)n3c2)CC1` as the compound, how does the EC50 (Kallikrein-7) read?
**A.** Its EC50 is 10.6 µM (inactive).
